Assay results from ChEMBL document CHEMBL1201862, “PubChem BioAssay data set” (2004).
Calls of active or inactive are those of the source.

Assays:
[1] = biological target: T1, Apoptotic protease-activating factor 1 (Homo sapiens, UniProt O14727); assay: SAR analysis of small molecule Activators of Apaf-1 in a Fluorescent assay.; type: functional; conditions: read-out: EC50_Mean
T1 sequence (O14727 whole entry): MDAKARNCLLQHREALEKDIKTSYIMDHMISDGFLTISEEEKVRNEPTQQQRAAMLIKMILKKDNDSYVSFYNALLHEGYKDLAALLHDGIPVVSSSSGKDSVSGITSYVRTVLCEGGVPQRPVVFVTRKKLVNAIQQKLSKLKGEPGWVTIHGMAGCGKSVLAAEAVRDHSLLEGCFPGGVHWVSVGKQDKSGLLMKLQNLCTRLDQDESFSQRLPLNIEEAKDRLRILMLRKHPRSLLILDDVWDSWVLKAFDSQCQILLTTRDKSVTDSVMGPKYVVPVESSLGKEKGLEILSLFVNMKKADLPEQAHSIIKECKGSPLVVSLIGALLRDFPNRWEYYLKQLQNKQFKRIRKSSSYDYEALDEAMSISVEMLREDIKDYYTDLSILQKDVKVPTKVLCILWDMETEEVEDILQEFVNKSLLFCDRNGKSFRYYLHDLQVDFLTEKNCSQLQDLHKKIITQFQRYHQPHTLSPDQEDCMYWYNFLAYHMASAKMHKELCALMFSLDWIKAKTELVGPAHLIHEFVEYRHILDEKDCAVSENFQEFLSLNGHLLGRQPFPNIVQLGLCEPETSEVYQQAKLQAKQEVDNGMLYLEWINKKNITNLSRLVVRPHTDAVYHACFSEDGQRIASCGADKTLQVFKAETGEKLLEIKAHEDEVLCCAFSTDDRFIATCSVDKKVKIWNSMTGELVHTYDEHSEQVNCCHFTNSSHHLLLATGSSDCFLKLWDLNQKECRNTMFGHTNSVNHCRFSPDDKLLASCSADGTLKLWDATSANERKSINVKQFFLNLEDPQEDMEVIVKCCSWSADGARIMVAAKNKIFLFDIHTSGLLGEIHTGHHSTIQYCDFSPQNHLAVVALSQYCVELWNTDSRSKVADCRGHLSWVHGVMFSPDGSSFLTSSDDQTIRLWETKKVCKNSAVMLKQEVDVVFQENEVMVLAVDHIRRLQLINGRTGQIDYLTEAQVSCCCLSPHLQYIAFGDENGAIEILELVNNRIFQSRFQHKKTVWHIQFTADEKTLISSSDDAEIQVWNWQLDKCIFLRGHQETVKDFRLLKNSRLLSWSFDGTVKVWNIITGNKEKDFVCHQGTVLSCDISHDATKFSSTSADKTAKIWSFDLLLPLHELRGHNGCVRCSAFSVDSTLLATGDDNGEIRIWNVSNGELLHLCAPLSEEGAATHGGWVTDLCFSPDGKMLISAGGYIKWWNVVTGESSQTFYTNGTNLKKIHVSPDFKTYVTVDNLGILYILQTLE

Melanocortin receptor 4 = Melanocortin receptor 4 (Homo sapiens, UniProt P32245); type: functional, cell-based;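 note: Cell-based assay with luminescence read-out, confirmatory dose-response testing for agonist activity of biased ligands at MC4R; human U2OS cells with tagged receptor and beta-arrestin; potency of agonists that increase receptor coupling to beta-arrestin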
Melanocortin receptor 4, sequence (P32245 whole entry): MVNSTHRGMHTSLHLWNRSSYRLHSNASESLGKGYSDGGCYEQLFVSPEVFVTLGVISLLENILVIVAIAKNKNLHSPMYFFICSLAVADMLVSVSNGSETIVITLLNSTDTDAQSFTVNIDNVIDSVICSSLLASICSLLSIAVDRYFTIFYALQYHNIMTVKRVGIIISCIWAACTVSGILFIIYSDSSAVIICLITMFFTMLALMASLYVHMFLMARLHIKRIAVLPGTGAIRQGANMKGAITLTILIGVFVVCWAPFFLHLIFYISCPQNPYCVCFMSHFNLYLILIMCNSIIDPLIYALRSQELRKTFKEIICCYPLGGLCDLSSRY

Beta-galactosidase = Beta-galactosidase (Escherichia coli, UniProt Q8VNN2); assay: Dose response counterscreen for EBI2 assay utilizing the enzyme, b-galactosidase.; type: functional
Beta-galactosidase, sequence (Q8VNN2 whole entry): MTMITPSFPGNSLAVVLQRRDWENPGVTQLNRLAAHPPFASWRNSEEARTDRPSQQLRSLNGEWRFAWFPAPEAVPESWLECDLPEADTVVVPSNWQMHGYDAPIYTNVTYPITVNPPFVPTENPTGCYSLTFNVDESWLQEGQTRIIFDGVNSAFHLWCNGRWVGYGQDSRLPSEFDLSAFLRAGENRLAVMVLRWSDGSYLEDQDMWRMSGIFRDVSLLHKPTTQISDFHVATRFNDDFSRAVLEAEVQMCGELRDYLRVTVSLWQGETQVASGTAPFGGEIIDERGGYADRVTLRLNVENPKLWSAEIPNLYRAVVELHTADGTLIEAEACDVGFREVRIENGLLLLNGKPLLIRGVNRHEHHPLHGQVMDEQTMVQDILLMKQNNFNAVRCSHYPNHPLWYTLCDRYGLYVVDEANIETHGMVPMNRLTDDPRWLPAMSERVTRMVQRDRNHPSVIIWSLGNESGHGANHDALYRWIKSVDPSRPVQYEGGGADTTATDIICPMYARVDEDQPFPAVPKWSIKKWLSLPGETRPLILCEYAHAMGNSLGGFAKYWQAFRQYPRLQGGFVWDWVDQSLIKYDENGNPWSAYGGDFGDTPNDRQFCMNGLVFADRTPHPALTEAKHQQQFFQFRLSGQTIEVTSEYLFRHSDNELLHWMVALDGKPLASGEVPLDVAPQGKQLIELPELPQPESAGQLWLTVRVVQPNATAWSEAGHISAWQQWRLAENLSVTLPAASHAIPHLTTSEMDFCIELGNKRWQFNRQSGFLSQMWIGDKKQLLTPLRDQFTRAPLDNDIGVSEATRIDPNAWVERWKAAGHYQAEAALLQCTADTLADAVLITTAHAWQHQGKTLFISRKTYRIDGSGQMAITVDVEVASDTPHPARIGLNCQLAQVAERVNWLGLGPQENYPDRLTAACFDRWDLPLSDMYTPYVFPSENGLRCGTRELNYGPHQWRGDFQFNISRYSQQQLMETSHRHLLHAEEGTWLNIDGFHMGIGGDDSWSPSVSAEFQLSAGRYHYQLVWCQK

[2] = biological target: T1, Apoptotic protease-activating factor 1; type: functional
[3] = biological target: T2, Sentrin-specific protease 8 (Homo sapiens, UniProt Q96LD8); type: functional
T2 sequence (Q96LD8 whole entry): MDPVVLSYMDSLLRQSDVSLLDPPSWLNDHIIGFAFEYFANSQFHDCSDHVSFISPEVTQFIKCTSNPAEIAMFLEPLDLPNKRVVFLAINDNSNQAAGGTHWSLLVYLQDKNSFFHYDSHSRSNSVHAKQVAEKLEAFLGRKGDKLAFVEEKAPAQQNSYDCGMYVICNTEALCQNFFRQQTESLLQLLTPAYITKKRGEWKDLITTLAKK

INS1 = assay: INS-1E survival protection against cytokine death – cell-based, luminescence, retest, dose response (AID 449756); type: functional; conditions: Rattus norvegicus;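 note: cell death triggered by IL-1 beta plus TNF-alpha plus IFN-gamma mixture; protective hits raise ATP signal compared with cytokine alone wells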
[4] = biological target: T2, Sentrin-specific protease 8; type: functional; remark: listed apart in the source
[5] = toxicity toward HepG2 liver cells – cell-based, plate reader, cherry-pick, antagonist series, cytotoxicity control, dose response (AID 743416); type: functional
[6] = viability loss in HEK293 cells – cell-based, plate reader, cherry-picked samples, cytotoxicity control, dose response (AID 743446); type: functional
[7] = A549 cell cytotoxicity, dose response, cytotoxicity control, plate reader, cherry-pick, antagonist series (AID 743412); type: functional, cell-based
[8] = general mammalian cell viability loss – activator set, cherry-pick, cytotoxicity control for miR-122 modulator project, dose response (AID 720690); type: functional, cell-based;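 note: HEK293T human cells scored for general mammalian cytotoxicity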
[9] = activation of miR-122 Renilla sensor silencing – cell-based, Huh7 psiCHECK-miR122, Renilla luciferase, cherry-picked, dose response (AID 651956); type: functional;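 note: huh7 hepatoma cells stably carrying a psiCHECK-2 miR-122 sensor plasmid; renilla luciferase signal reporting endogenous miR-122 activity after 48 h compound exposure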
[10] = general mammalian cell viability loss – inhibitor set, cherry-pick, set 2, cytotoxicity control for miR-122 modulator project, dose response (AID 720697); type: functional, cell-based
[11] = bead-based luminescence quenchers, dual-tagged ARNT – biochemical, AlphaScreen, cherry-pick, artefact control for ARNT-TACC3 interaction inhibitor project, dose response (AID 651705); type: functional;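 note: AlphaScreen bead proximity signal that flags compounds interfering with the detection technology; potency reflects signal decrease which marks the compound as an assay artifact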
BJ [12] = assay: growth inhibition of engineered Ras-driven BJ cells – cell-based, alamar blue fluorescence, cherrypicked samples, dose response (AID 2631); type: functional; conditions: Homo sapiens;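 note: confirmatory dose-response assay in RAS-dependent BJ fibroblasts engineered with TERT, LT and ST, with cytotoxicity read by fluorescence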
BJ [13] = assay: BJ-TERT-LT-ST fibroblast viability loss – cell-based, RAS-independent, luminescence, dose response (AID 1935); type: functional; conditions: Homo sapiens;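 note: BJ fibroblasts immortalized with TERT plus LT and ST oncogenes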
[14] = biological target: T3, Rac GTPase-activating protein 1 (Homo sapiens, UniProt Q9H0H5); assay: blockers of MgcRacGAP-driven Rac1 GTP hydrolysis – biochemical, ADP Hunter fluorescence, primary and confirmatory, confirmation (AID 624330); type: functional
T3 sequence (Q9H0H5 whole entry): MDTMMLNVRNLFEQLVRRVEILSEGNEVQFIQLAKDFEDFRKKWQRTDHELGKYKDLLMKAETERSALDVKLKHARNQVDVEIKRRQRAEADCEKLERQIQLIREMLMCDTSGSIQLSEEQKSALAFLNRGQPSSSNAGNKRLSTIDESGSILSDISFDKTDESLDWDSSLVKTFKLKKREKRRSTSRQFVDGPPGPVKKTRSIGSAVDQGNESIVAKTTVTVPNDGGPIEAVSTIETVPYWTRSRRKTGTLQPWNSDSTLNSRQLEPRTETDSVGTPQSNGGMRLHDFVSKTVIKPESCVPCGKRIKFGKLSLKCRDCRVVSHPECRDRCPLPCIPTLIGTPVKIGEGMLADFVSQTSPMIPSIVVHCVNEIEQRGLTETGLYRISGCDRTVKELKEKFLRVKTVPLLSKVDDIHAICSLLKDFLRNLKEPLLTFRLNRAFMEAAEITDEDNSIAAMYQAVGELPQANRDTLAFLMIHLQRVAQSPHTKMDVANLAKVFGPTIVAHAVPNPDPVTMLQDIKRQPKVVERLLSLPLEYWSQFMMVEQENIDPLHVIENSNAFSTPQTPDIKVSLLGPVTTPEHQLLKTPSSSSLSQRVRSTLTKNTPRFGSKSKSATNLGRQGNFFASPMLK

BJ [15] = assay: BJ-TERT fibroblast viability loss – cell-based, RAS-independent, luminescence, dose response (AID 1933); type: functional; conditions: Homo sapiens
[16] = DRD fibroblast viability loss – cell-based, non-viral oncogenic, luminescence, dose response (AID 1934); type: functional; conditions: Homo sapiens
BJ [17] = assay: cells; type: functional, cell-based; conditions: Homo sapiens
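Throughout, for EC50 Mean: caspase-3 cleavage of fluorogenic Rh110 DEVD substrate downstream of apoptosome activation.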

For `O=C(c1ccco1)N1CCN(C(=O)C2CC(c3ccc(F)cc3)=NO2)CC1` (centres undefined), the EC50 [1] was > 100 µM (inactive).
With `CC(=O)Nc1cc(-c2ccccc2)cn2c(-c3ccc(F)cc3)cnc12` the EC50 (Melanocortin receptor 4) was > 89.2 µM (inactive).
In the case of `O=C(c1ccc(-n2cccc2)cc1)N1CCN(Cc2ccccc2)CC1`, the IC50 (Beta-galactosidase) was > 80 µM (inactive).
With `O=C(/C=C/c1ccc(Br)cc1)N1CCN(c2cccc(C(F)(F)F)c2)CC1` the IC50 (Beta-galactosidase) was > 80 µM (inactive).
With `CCCCOc1cc(NCc2ccccc2)c2ncn(C(C)C)c2c1` the IC50 [2] was 13.4 µM (active), the IC50 [3] was 12.9 µM (active) and the AC50 (INS1) was 8.11 µM (active). For the same compound, the IC50 [4] was 12.2 µM (active), the AC50 [5] was 20.3 µM (active) and the AC50 [6] was > 52 µM (inactive). For the same compound, the AC50 [7] was 17.3 µM (active).
With `COc1ccc(-c2cc(NC(C)=O)c3ncc(-c4ccccc4)n3c2)c(OC)c1` the EC50 (Melanocortin receptor 4) was > 89.2 µM (inactive).
For `CC(=O)Nc1ccc(C(C)C)cc1`, the EC50 [1] was > 100 µM (inactive).
In the case of `C[C@@H]1CCCCO[C@H](CN(C)CC2CCCCC2)[C@H](C)CN([C@@H](C)CO)C(=O)c2cc(NC(=O)Nc3cccc4ccccc34)ccc2O1`, the AC50 [8] was 10.6 µM (active), the AC50 [9] was 11.1 µM (active) and the AC50 [10] was 0.587 µM (active).
For `N#Cc1ccc(OCC(=O)NCCCn2ccnc2)cc1`, the AC50 [11] was 95.7 µM (active).
With `COc1ccc(S(=O)(=O)N2CCCCC2)cc1NC(=O)CCS(=O)(=O)c1ccc(C)cc1` the EC50 [1] was > 100 µM (inactive).
For `CCOc1cc(/C=C2\CN(C)C/C(=C\c3ccc(O)c(OCC)c3)C2=O)ccc1O`, the EC50 (BJ [12]) was 0.571 µM (active), the EC50 (BJ [13]) was 2.64 µM (inconclusive) and the IC50 [14] was 38.9 µM (active). For the same compound, the EC50 (BJ [15]) was 3.26 µM (inconclusive), the EC50 [16] was 2.93 µM (active) and the EC50 (BJ [17]) was 4.94 µM (inconclusive).
